Source: PubChem BioAssay (NCI)
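Abbreviation: GI50, concentration required for 50% inhibition of growth. The concentration for full growth arrest is given as TGI.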

Experiments:
Assay in all cases: NCI tumour cell line growth inhibition, 384-well format
HOP-62 NSCLC = test system: HOP-62 NSCLC
CAKI-1 renal = test system: CAKI-1 renal
MDA-MB-468 breast = test system: MDA-MB-468 breast
UO-31 renal = test system: UO-31 renal
MALME-3M melanoma = test system: MALME-3M melanoma
DU-145 prostate = test system: DU-145 prostate
OVCAR-3 ovarian = test system: OVCAR-3 ovarian
UACC-62 melanoma = test system: UACC-62 melanoma
SW-620 colon = test system: SW-620 colon
SF-539 CNS = test system: SF-539 CNS
SK-OV-3 ovarian = test system: SK-OV-3 ovarian
MDA-MB-435 melanoma = test system: MDA-MB-435 melanoma
SF-295 CNS = test system: SF-295 CNS

`NC(=O)[C@@H](CC1CC1)[C@@H](CCC(F)(F)F)C(=O)N[C@H]1N=C(c2ccccc2)c2cccc(F)c2NC1=O` showed a GI50 (HOP-62 NSCLC) of 8.29 µM, a TGI (HOP-62 NSCLC) of 25 µM and a GI50 (CAKI-1 renal) of 15 µM. For the same molecule, the TGI (CAKI-1 renal) was 36.8 µM, the TGI (MDA-MB-468 breast) was 2.52 µM and the GI50 (UO-31 renal) was 17.6 µM. For the same molecule, the TGI (UO-31 renal) was 69.1 µM, the GI50 (MALME-3M melanoma) was 14.8 µM and the TGI (MALME-3M melanoma) was 28.2 µM. It also gave a GI50 (DU-145 prostate) of 23.7 µM, a TGI (DU-145 prostate) of 66.6 µM and a GI50 (OVCAR-3 ovarian) of 14.4 µM. It also gave a TGI (OVCAR-3 ovarian) of 29 µM, a GI50 (UACC-62 melanoma) of 14.7 µM and a TGI (UACC-62 melanoma) of 28.7 µM. For the same molecule, the GI50 (SW-620 colon) was 17.7 µM, the TGI (SW-620 colon) was 35.1 µM and the GI50 (SF-539 CNS) was 15.4 µM. It also gave a TGI (SF-539 CNS) of 29 µM, a GI50 (SK-OV-3 ovarian) of 14.9 µM and a TGI (SK-OV-3 ovarian) of 28.5 µM. It also gave a GI50 (MDA-MB-435 melanoma) of 19.2 µM, a TGI (MDA-MB-435 melanoma) of 43.7 µM and a GI50 (SF-295 CNS) of 17.8 µM. For the same molecule, the TGI (SF-295 CNS) was 37.2 µM.
